Experimental data from patent US10869476B2 (priority 2015, dated 2020).
Read-outs that look alike come from different tables or passages of the source.

Experiments:
Assay type in all cases: in vivo
[1] = test system: Fusarium; conditions: wheat, 100 EC, 67 days after application
[2] = test system: Gibberella zeae; conditions: winter wheat kernels after harvest, Germany 2015; 75 g a.i./ha, 100 EC formulation plus adjuvant, BBCH 65; HPLC-MS/MS; Untreated Control 497
[3] = test system: Fusarium head blight; conditions: wheat field trials France and Germany 2016; for Fusarium head blight in % sev. after 11 to 20 days after application: UTC 13; for Fusarium head blight in % sev. after 21 to 46 days after application: UTC 35

`CON(C(=O)c1cn(C)nc1C(F)F)C(C)Cc1c(Cl)cc(Cl)cc1Cl` (stereo not shown) [Pydiflumetofen, 3-(Difluoromethyl)-N-methoxy-1-methyl-N-[1-(2,4,6-trichlorophenyl)-2-propanyl]-1H-pyrazole-4-carboxamide] was tested, and the “3- Acetyl Deoxynivalenol” value ([1]; France, second trial (UTC 189), 45 g a.i./ha) was 63 ppb, the “3- Acetyl Deoxynivalenol” value ([1]; France, second trial (UTC 189), 60 g a.i./ha) was <50 ppb and the Nivalenol ([1]; Germany, first trial (UTC 126), 45 g a.i./ha) was 0 ppb. For the same molecule, the Nivalenol ([1]; Germany, first trial (UTC 126), 60 g a.i./ha) was 0 ppb, the “3- Acetyl Deoxynivalenol” value ([1]; Germany, second trial (UTC 56), 45 g a.i./ha) was 0 ppb and the “3- Acetyl Deoxynivalenol” value ([1]; Germany, second trial (UTC 56), 60 g a.i./ha) was 0 ppb. For the same molecule, the Nivalenol ([1]; Germany, second trial (UTC 159), 45 g a.i./ha) was 0 ppb, the Nivalenol ([1]; Germany, second trial (UTC 159), 60 g a.i./ha) was 0 ppb and the “Deoxynivalenol Content” value [2] was 44 ppm. For the same molecule, the “Fusarium head blight in % sev. after 11 to 20 days after application” value ([3]; 45 g a.i./ha) was 42 % sev, the “Fusarium head blight in % sev. after 21 to 46 days after application” value ([3]; 45 g a.i./ha) was 51 % sev and the “Fusarium head blight in % sev. after 11 to 20 days after application” value ([3]; 60 g a.i./ha) was 52 % sev. For the same molecule, the “Fusarium head blight in % sev. after 21 to 46 days after application” value ([3]; 60 g a.i./ha) was 64 % sev.
